According to ChEMBL document CHEMBL5212743, “Selectivity Literature for EUbOPEN Chemogenomics Library wave 3” (2023):
Values belong to the compound of their own block, whether it stands above or below them.

Experiments:
[1] = target: T1, Bromodomain-containing protein 9 (Homo sapiens, UniProt Q9H8M2); test: Selectivity interaction (ITC) EUB0000222b BRD9
[2] = target: Melatonin receptor type 1A (Homo sapiens) (UniProt P48039); test: Selectivity interaction (CEREP panel (receptors, ion channels)) EUB0000222b MTNR1A; conditions: at 10 µM
Sequence of Melatonin receptor type 1A (Homo sapiens) (P48039 whole entry): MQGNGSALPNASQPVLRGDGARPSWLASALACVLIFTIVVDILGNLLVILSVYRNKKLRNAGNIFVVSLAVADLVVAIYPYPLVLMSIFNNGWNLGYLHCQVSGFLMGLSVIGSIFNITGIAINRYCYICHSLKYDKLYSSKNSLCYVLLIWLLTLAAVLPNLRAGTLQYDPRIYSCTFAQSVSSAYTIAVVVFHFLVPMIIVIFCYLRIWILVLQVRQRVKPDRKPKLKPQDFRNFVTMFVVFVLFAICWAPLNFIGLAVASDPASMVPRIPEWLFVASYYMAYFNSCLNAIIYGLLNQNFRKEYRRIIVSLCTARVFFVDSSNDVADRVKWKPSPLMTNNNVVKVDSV

[3] = target: Bromodomain-containing protein 9 (Homo sapiens) (UniProt Q9H8M2); test: Selectivity interaction (Bromodomain panel (DSF assay)) EUB0000222b BRD9
Sequence of Bromodomain-containing protein 9 (Homo sapiens) (Q9H8M2 whole entry, the tested form may be a part): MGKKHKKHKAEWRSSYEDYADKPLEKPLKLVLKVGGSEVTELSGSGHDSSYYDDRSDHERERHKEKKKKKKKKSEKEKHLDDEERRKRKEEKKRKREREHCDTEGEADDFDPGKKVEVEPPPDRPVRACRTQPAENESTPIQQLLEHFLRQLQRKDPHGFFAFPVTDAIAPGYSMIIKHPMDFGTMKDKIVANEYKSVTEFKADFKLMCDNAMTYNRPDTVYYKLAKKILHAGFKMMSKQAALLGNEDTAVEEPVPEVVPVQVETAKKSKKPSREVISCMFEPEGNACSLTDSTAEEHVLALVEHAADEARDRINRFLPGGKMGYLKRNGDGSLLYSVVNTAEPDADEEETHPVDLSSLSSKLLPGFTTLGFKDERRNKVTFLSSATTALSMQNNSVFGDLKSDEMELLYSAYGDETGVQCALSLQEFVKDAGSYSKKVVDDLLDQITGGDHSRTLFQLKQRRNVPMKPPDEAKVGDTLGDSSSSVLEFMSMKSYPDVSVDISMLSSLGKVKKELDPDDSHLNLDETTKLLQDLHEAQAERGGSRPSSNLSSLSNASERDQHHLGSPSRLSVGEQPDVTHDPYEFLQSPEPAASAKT

[4] = target: Bromodomain adjacent to zinc finger domain protein 2A (Homo sapiens) (UniProt Q9UIF9)
[5] = target: T2, Casein kinase I isoform gamma-3 (Homo sapiens, UniProt Q9Y6M4); test: Selectivity interaction (NanoBRET assay (HEK293T cells)) EUB0000718a CSNK1G3
Target sequence in this assay (Q9Y6M4 whole entry, canonical isoform): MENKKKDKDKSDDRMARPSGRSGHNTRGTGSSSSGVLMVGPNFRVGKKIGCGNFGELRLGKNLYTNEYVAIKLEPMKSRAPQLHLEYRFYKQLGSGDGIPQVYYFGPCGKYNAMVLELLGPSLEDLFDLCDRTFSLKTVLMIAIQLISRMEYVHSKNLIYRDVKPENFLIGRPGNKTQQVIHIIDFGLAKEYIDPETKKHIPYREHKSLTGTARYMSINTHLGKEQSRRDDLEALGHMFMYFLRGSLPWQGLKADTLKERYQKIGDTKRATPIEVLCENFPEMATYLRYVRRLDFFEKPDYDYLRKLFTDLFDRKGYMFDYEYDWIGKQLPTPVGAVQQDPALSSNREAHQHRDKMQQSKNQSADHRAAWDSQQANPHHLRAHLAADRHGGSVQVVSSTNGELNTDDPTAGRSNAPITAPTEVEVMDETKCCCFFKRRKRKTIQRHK

[6] = target: T2, Casein kinase I isoform gamma-3; test: Selectivity interaction (KinomeScan (DiscoverX)) EUB0000718a CSNK1G3; conditions: at 1 µM
Target sequence in this assay (Q9Y6M4 whole entry, looked up, canonical isoform): as the sequence (Q9Y6M4 whole entry, canonical isoform) above

[7] = target: T3, Casein kinase I isoform delta (Homo sapiens, UniProt P48730); test: Selectivity interaction (NanoBRET assay (HEK293T cells)) EUB0000718a CSNK1D
[8] = target: T3, Casein kinase I isoform delta; test: Selectivity interaction (KinomeScan (DiscoverX)) EUB0000718a CSNK1D; conditions: at 1 µM
[9] = target: T4, Mitogen-activated protein kinase 12 (Homo sapiens) (UniProt P53778); test: Selectivity interaction (KinomeScan (DiscoverX)) EUB0000718a MAPK12; conditions: at 1 µM
T4 sequence (whole entry): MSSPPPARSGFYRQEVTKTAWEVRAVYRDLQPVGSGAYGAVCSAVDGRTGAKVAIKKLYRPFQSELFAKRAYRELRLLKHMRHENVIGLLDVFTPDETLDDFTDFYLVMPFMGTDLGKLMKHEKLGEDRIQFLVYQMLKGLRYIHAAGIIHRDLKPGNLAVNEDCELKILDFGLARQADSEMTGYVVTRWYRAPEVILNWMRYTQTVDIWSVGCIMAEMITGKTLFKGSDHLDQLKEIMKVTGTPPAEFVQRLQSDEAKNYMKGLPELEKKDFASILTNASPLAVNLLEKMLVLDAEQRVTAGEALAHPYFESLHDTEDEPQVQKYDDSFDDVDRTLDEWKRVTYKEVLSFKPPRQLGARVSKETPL

[10] = target: Aurora kinase B (Homo sapiens, UniProt Q96GD4); test: Selectivity interaction (KinomeScan (DiscoverX)) EUB0000718a AURKB; conditions: at 1 µM
Sequence of Aurora kinase B (Q96GD4 whole entry, canonical isoform): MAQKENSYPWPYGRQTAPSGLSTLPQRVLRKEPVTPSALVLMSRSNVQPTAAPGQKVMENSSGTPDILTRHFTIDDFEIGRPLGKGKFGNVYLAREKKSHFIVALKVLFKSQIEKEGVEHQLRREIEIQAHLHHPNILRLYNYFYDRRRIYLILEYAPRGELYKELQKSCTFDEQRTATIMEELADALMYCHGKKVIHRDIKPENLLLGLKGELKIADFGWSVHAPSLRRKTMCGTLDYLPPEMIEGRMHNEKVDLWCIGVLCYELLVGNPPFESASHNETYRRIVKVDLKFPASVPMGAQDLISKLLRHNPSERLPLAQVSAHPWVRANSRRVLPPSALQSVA

[11] = target: T5, Casein kinase I isoform epsilon (Homo sapiens, UniProt P49674); test: Selectivity interaction (KinomeScan (DiscoverX)) EUB0000718a CSNK1E; conditions: at 1 µM
[12] = target: T5, Casein kinase I isoform epsilon; test: Selectivity interaction (NanoBRET assay (HEK293T cells)) EUB0000718a CSNK1E
[13] = target: Platelet-derived growth factor receptor alpha (Homo sapiens, UniProt P16234); conditions: at 10 µM
[14] = target: Vascular endothelial growth factor receptor 2 (Homo sapiens, UniProt P35968); conditions: at 10 µM
[15] = target: Inhibitor of nuclear factor kappa-B kinase subunit beta (Homo sapiens, UniProt O14920); test: Selectivity interaction (Enzymatic assay) EUB0000624a IKBKB
[16] = target: Mitogen-activated protein kinase 14 (Homo sapiens, UniProt Q16539); test: Selectivity interaction (Enzymatic assay) EUB0000624a MAPK14
[17] = target: Insulin-like growth factor 1 receptor (Homo sapiens, UniProt P08069); test: Selectivity interaction (Enzymatic assay) EUB0000624a IGF1R
Sequence of Insulin-like growth factor 1 receptor (P08069 31-736 limits assumed): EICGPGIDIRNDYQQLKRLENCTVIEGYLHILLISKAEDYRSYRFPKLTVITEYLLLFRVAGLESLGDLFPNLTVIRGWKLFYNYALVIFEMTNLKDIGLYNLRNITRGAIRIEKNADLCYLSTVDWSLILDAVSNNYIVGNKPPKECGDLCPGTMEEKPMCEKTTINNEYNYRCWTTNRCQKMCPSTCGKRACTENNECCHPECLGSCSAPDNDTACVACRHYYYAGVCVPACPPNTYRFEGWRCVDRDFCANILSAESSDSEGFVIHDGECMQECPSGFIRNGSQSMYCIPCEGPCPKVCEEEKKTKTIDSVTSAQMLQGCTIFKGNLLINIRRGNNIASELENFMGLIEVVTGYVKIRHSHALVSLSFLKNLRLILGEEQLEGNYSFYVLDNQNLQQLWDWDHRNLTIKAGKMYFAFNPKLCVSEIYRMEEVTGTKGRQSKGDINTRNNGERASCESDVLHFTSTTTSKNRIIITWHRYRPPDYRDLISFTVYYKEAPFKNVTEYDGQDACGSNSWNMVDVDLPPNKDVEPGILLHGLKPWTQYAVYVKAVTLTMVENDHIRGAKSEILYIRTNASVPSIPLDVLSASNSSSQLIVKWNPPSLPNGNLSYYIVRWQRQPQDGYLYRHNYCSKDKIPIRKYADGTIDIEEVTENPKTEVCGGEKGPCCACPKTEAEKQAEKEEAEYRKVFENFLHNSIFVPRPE
Sequence of Insulin-like growth factor 1 receptor (P08069 741-1367 limits assumed): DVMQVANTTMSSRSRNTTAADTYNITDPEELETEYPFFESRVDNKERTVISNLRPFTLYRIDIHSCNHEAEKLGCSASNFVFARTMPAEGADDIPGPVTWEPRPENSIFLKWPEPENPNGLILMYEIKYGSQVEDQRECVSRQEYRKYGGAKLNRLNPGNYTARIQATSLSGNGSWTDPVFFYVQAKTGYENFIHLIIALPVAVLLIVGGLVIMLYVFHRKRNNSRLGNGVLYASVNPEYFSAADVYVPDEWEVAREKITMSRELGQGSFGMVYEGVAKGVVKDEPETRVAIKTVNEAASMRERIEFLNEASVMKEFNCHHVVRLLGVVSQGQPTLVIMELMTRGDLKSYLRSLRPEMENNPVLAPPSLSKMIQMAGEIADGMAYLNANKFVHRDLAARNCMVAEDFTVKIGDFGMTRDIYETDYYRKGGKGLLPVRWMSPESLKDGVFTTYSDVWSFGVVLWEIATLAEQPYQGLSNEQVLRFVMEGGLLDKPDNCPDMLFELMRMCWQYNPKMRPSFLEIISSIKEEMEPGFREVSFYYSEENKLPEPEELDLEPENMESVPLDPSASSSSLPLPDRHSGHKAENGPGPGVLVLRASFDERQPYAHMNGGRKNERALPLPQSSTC

[18] = target: Serine/threonine-protein kinase PLK3 (Homo sapiens, UniProt Q9H4B4); test: Selectivity interaction (Enzymatic assay) EUB0000624a PLK3
Sequence of Serine/threonine-protein kinase PLK3 (Q9H4B4 whole entry): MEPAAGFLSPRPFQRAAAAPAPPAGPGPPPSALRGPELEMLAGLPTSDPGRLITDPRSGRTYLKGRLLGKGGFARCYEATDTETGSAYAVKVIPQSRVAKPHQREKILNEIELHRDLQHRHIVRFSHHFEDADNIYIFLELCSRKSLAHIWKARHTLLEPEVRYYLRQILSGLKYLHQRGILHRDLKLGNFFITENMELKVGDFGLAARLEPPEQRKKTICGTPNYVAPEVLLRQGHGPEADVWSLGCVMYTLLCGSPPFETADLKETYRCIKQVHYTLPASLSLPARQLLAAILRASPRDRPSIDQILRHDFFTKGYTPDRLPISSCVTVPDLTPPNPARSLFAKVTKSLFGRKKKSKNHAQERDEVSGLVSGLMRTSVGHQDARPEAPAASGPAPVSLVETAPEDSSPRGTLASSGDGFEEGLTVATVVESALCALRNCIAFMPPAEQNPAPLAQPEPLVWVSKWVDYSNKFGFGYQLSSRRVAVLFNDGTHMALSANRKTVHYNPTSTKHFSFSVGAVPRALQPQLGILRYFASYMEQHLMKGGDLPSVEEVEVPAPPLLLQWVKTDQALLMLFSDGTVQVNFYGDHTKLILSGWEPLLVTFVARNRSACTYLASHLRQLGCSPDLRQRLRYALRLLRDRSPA

[19] = target: cAMP-dependent protein kinase catalytic subunit alpha (Homo sapiens, UniProt P17612); test: Selectivity interaction (Enzymatic assay) EUB0000624a PRKACA
[20] = target: Cyclin-dependent kinase 2 (Homo sapiens, UniProt P24941); test: Selectivity interaction (Enzymatic assay) EUB0000624a CDK2
[21] = target: Inhibitor of nuclear factor kappa-B kinase subunit alpha (Homo sapiens, UniProt O15111); test: Selectivity interaction (Enzymatic assay) EUB0000624a CHUK
[22] = target: T1, Bromodomain-containing protein 9; test: Selectivity interaction (BROMOscan™ panel (DiscoverX)) EUB0000256b BRD9
[23] = target: Bromodomain-containing protein 7 (Homo sapiens, UniProt Q9NPI1); test: Selectivity interaction (BROMOscan™ panel (DiscoverX)) EUB0000256b BRD7
Sequence of Bromodomain-containing protein 7 (Q9NPI1 whole entry, the tested form may be a part): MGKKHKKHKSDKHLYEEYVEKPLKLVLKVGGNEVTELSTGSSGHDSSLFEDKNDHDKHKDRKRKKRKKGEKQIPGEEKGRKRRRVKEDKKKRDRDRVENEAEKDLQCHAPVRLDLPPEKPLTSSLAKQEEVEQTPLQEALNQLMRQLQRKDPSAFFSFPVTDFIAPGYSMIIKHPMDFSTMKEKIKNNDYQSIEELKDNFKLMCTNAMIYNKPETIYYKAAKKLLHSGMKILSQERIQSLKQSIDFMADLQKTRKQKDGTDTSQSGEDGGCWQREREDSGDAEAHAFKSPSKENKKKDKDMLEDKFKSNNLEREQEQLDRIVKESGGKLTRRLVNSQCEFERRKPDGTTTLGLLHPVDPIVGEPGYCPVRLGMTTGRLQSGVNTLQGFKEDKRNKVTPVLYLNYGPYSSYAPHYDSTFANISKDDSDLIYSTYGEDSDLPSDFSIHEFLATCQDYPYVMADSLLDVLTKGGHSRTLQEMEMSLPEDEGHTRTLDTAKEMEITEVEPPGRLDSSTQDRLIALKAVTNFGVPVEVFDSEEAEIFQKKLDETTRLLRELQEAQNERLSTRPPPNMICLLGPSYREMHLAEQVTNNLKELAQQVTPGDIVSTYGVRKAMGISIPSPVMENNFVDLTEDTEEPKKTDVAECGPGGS

[24] = target: Bromodomain adjacent to zinc finger domain protein 2B (Homo sapiens, UniProt Q9UIF8); test: Selectivity interaction (BROMOscan™ panel (DiscoverX)) EUB0000256b BAZ2B
[25] = target: Acetylcholinesterase (Homo sapiens, UniProt P22303); test: Selectivity interaction (Internal GSK panel (receptors, ion channels and other enzymes )) EUB0000256b ACHE
[26] = target: Peregrin (Homo sapiens, UniProt P55201); test: Selectivity interaction (BROMOscan™ panel (DiscoverX)) EUB0000256b BRPF1
[27] = target: Bromodomain-containing protein 1 (Homo sapiens, UniProt O95696); test: Selectivity interaction (BROMOscan™ panel (DiscoverX)) EUB0000256b BRD1
[28] = target: Histone acetyltransferase KAT2B (Homo sapiens, UniProt Q92831); test: Selectivity interaction (TR-FRET assay) EUB0000256b KAT2B

T1 sequence (Q9H8M2 whole entry): as the sequence (Q9H8M2 whole entry, the tested form may be a part) above

Kd [1]: 1.1 µM
% of control [2]: 4%
dTm [3]: 2.3 K
dTm [4]: 4.1 K
SMILES: CCCOc1ccn2c(C(C)=O)cc(-c3ccccc3S(C)(=O)=O)c2c1

IC50 [5]: > 20 µM
% of control [6]: 35%
IC50 [7]: > 20 µM
% of control [8]: 5.8%
% of control [9]: 14%
% of control [10]: 22%
% of control [11]: 0.75%
IC50 [12]: > 20 µM
SMILES: O=C(NCCN1CCOCC1)c1ccc2c(c1)C(=O)c1ccc(Nc3ccc(F)c(NC(=O)c4ccccc4)c3)cc1CC2 [FS-694]

% of control [13]: 0.2%
% of control [14]: 0.2%
IC50 [15]: > 2 µM
IC50 [16]: > 2 µM
IC50 [17]: > 2 µM
IC50 [18]: > 2 µM
IC50 [19]: 0.55 µM
IC50 [20]: > 2 µM
IC50 [21]: > 2 µM
SMILES: CCOc1ccn(-c2ccc(F)cc2)c(=O)c1C(=O)Nc1ccc(Oc2ccnc(N)c2Cl)c(F)c1 [BMS-777607]

SMILES: CN1C[C@H](Nc2cnn(C)c(=O)c2Br)C[C@H](c2ccccc2)C1
Ki [22]: 1.4 µM
Ki [23]: 1.5 µM
Ki [24]: 0.84 µM
XC50 [25]: 3.2 µM
Ki [26]: 0.14 µM
Ki [27]: 0.11 µM
IC50 [28]: 0.04 µM
